This is an account of results in ChEMBL document CHEMBL3727360, “Tetrahydroisoquinolines as selective nadph oxidase 2 inhibitors” (2014).

Active and inactive are the calls of the source. The rule behind the calls is not given here.

The target of one data set is T1, NADPH oxidase 4 (Homo sapiens, UniProt Q9NPH5).
T1 sequence (Q9NPH5 whole entry): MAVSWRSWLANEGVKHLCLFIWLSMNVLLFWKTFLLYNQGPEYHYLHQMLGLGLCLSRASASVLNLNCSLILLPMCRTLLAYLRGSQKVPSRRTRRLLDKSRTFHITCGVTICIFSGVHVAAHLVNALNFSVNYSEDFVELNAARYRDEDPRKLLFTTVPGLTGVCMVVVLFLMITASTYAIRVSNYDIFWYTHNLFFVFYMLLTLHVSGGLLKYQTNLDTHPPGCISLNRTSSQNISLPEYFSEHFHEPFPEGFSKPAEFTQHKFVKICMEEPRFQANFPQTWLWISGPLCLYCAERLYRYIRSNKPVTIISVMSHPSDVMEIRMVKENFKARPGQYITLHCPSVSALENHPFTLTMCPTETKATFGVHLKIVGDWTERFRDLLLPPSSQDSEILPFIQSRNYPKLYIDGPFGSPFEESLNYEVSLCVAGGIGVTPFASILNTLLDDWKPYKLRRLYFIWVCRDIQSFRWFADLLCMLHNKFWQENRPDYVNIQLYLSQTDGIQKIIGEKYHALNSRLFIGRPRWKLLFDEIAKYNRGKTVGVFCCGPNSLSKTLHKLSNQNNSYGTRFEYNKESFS
In words: Inhibition of human Nox4 expressed in COS7 cells assessed as inhibition of PMA-induced H2O2 production by amplex red dye based fluorescence assay. In kind it is cell-based. As to conditions: cos-7.

Data set [1] has as its target Xanthine dehydrogenase/oxidase (Bos taurus, UniProt P80457). The data set can be described thus: Inhibition of bovine xanthine-oxidase assessed as H2O2 production at 25 to 50 uM by amplex red dye based fluorescence assay. As to conditions: cattle.
A short description of data set [2]: Cytotoxicity against african green monkey COS7 cells at high concentration for 15 mins by fluorescence analysis. As to conditions: chlorocebus aethiops, cos-7, 0.25 h. In kind it is cell-based.
Data set [3] addresses T2, NADPH oxidase 2 (Homo sapiens) (UniProt P04839).
T2 sequence (whole entry): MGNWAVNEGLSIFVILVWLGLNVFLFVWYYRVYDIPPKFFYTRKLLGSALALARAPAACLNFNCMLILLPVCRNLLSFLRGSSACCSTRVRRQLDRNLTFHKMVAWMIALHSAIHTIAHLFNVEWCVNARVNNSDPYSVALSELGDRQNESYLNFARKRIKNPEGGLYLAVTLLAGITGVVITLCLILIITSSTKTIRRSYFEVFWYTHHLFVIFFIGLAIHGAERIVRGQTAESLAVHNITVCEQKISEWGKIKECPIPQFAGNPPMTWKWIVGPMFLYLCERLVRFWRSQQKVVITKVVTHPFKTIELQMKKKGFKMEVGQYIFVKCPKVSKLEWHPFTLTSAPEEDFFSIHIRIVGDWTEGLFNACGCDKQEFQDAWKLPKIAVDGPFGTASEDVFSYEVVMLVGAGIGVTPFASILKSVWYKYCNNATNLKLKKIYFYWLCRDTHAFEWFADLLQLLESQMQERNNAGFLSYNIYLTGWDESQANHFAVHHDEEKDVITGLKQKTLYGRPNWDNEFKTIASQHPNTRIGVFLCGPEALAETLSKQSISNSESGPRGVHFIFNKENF
In words: Inhibition of human Nox2 expressed in COS7 cells co-transfected with human p22-phox,p47phox and p67-phox assessed as inhibition of LiDS-induced superoxide generation at 6.3 uM preincubated for 15 mins followed by addition of LiDS and NADPH. The class given is cell-based. The following applies: COS-7.

The test system of data set [4] is HPAEC. The data set can be described thus: Inhibition of high-glucose-stimulated superoxide production in HPAEC cells at 25 uM measured after 24 hrs. The class given is functional, cell-based. As to conditions: Homo sapiens.
The subject of data set [5] is HPAEC. In words: Inhibition of angiotensin-2-stimulated superoxide production in HPAEC cells at 25 uM measured after 24 hrs. In kind it is functional, cell-based. As to conditions: Homo sapiens.
Data set [6] concerns the target T2, NADPH oxidase 2 (Homo sapiens). In words: Inhibition of human Nox2 expressed in COS7 cells co-transfected with human p22-phox,p47phox and p67-phox assessed as inhibition of PMA-induced ROS production at 10 uM. The class given is cell-based. As to conditions: COS-7.
Data set [7] concerns the target T3, NADPH oxidase 1 (Homo sapiens) (UniProt Q9Y5S8).
T3 sequence (whole entry): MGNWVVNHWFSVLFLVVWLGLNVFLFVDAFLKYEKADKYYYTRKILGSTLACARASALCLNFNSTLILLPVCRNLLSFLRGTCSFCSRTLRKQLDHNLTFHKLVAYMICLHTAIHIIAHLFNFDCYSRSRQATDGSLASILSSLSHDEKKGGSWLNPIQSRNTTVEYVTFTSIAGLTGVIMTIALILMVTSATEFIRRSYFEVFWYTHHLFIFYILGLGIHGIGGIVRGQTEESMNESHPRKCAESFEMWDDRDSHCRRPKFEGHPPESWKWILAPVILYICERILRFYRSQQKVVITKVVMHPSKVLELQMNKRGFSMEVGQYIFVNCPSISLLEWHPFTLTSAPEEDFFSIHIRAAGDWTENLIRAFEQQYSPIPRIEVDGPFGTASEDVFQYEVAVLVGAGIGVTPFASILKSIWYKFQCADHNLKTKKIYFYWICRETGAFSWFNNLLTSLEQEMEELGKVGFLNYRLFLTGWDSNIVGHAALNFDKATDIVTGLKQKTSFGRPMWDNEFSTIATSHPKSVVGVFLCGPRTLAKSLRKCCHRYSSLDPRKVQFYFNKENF
In words: Inhibition of human Nox1 expressed in COS7 cells co-transfected with human co-transfected with human NOXO1/NOXA1 assessed as inhibition of PMA-induced ROS production at 10 uM. In kind it is cell-based. The following applies: COS-7.

For data set [8], the system named is Cardiac muscle cell. In words: Inhibition of high-glucose-stimulated ROS production in rat cardiomyocyte at 25 uM. In kind it is functional.
Data set [9] has as its system Cardiac muscle cell. The data set can be described thus: Inhibition of high-glucose-stimulated hypertrophy in rat cardiomyocyte at 25 uM. In kind it is functional.
The next data set has as its system Fibroblast. The data set can be described thus: Inhibition of PMA-induced ROS production in human fibroblast at 10 uM. In kind it is functional, cell-based.
The target of data set [10] is T4, NADPH oxidase 2 (Homo sapiens, UniProt P04839).
T4 sequence (P04839 whole entry): T2 sequence (whole entry)
The data set can be described thus: Inhibition of human Nox2 expressed in COS7 cells co-transfected with human p22-phox,p47phox and p67-phox assessed as inhibition of PMA-induced superoxide generation by L-012 chemiluminescence analysis. The class given is cell-based. As to conditions: cos-7.

The target of data set [11] is T4, NADPH oxidase 2. In words: Inhibition of human Nox2 expressed in COS7 cells co-transfected with human p22-phox,p47phox and p67-phox assessed as inhibition of PMA-induced H2O2 production by amplex red dye based fluorescence assay. In kind it is cell-based. The following applies: cos-7.
A further data set deals with T5, NADPH oxidase 1 (Homo sapiens, UniProt Q9Y5S8).
T5 sequence (Q9Y5S8 whole entry): T3 sequence (whole entry)
The data set can be described thus: Inhibition of human Nox1 expressed in COS7 cells co-transfected with human NOXO1/NOXA1 assessed as inhibition of PMA-induced superoxide generation by L-012 chemiluminescence analysis. The class given is cell-based. The following applies: cos-7.

Chain of Xanthine dehydrogenase/oxidase (P80457 whole entry): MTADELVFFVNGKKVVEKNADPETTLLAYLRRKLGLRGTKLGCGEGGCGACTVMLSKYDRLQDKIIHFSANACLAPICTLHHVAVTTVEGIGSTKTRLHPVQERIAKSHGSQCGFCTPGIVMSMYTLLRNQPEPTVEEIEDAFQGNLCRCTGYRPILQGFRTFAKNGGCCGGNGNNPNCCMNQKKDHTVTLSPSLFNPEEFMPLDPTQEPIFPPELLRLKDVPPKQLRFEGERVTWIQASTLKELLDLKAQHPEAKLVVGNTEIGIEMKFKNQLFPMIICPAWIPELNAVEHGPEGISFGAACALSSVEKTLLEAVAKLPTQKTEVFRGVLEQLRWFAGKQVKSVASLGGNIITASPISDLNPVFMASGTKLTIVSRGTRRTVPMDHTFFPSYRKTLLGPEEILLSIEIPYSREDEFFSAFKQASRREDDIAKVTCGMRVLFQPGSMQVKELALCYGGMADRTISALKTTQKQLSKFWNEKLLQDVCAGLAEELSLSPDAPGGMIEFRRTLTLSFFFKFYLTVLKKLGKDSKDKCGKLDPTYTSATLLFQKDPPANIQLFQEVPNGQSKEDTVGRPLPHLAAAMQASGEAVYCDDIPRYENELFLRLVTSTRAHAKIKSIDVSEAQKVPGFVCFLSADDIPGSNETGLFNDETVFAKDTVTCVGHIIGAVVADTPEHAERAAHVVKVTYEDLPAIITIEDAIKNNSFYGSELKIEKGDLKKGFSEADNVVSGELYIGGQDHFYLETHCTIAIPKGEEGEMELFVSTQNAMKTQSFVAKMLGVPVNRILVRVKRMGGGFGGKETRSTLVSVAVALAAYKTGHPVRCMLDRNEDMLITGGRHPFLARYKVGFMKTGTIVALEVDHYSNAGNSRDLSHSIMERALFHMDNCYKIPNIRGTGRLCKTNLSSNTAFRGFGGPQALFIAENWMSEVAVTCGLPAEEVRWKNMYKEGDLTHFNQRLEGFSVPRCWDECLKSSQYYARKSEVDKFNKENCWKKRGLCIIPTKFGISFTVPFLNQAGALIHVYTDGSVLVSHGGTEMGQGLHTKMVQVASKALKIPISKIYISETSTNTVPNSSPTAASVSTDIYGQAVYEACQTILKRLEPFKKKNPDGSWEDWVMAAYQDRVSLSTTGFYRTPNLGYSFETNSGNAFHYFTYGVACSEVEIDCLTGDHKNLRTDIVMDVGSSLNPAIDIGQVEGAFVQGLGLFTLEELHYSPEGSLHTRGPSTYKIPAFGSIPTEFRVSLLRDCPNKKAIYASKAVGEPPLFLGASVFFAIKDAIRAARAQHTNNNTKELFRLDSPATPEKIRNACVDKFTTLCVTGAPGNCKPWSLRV

For `C=C(C)C[C@@H]1N[C@H]2CC(C)(C)[C@@H]1c1c(Br)ccc(Br)c12`, the IC50 entry at NADPH oxidase 4 was “Not Active”. For the same compound, the “inhibition (INH)” value in [1] was “Not Active”. Further, the Activity result in data set [2] is on record as “Toxic”.

As for `C=C(C)CC1NC2CC(C)(C)C1c1c(Br)cccc12` (racemic), the inhibition result in data set [3] is “Active”. The “inhibition (INH)” value in data set [1] is recorded as “Not Active”. The Activity entry in data set [2] is reported as “Toxic”.

`C=C(C)CC1NC2CC(C)(C)C1c1ccccc12` (racemic): the IC50 result on NADPH oxidase 4 was “Not Active”. Further, the “inhibition (INH)” value in data set [1] is “Not Active”.

`CC(C)CC1NC2CC(C)(C)C1c1c(Br)cccc12` (racemic): the “inhibition (INH)” value in data set [1] was “Not Active”. Further, in data set [2], the Activity result is “Toxic”.

`C=C(C)CC1C2c3ccccc3C(CC2(C)C)N1Cc1cccc(F)c1` (racemic): the “inhibition (INH)” value in [1] is “Not Active”.

As to `C=C(C)CC1C2c3c(Br)cccc3C(CC2(C)C)N1Cc1ccnc2ccccc12` (racemic), at NADPH oxidase 4, the IC50 entry is “Not Active”. In addition, the “inhibition (INH)” value in data set [1] is listed as “Not Active”.

`C=C(C)CC1C2c3c(Br)cccc3C(CC2(C)C)N1Cc1c[nH]c2ccccc12` (racemic): the IC50 result on NADPH oxidase 4 is on record as “Not Active”. The “inhibition (INH)” value in data set [1] is given as “Not Active”.

Regarding `C=C(C)CC1C2c3c(Br)cccc3C(CC2(C)C)N1Cc1ccc2c(c1)OCO2` (racemic), the “inhibition (INH)” value in data set [1] is “Not Active”.

In the case of `C=C(C)CC1C2c3c(Br)cccc3C(CC2(C)C)N1Cc1cc(C)on1` (racemic), the “inhibition (INH)” value in data set [1] is recorded as “Not Active”.

In the case of `C=C(C)CC1C2c3c(Br)cccc3C(CC2(C)C)N1Cc1cccc(F)c1` (racemic), the “inhibition (INH)” value in data set [1] was “Not Active”.

As to `C=C(C)CC1C2c3c(Br)cccc3C(CC2(C)C)N1CCCCC` (racemic), the “inhibition (INH)” value in data set [1] is recorded as “Not Active”. For the same compound, the inhibition result (with HPAEC [4]; in data set [6]; in data set [7]; in the data set with Cardiac muscle cell [8]; in the data set with Cardiac muscle cell [9]; with Fibroblast) was “Active” in each case. Moreover, the inhibition entry in the data set on HPAEC [5] is “inactive”.

`C=C(C)CC1NC2CC(C)(C)C1c1c(-c3ccc(Cl)c(Cl)c3)cccc12` (racemic): the “inhibition (INH)” value in [1] is “Not Active”.

For the compound `C=C(C)C[C@@H]1N[C@H]2CC(C)(C)[C@@H]1c1c(-c3cccnc3)cccc12` (racemic), the IC50 entry on NADPH oxidase 2 [10] and at NADPH oxidase 2 [11] was “Not Active” throughout.

Consider `C=C(C)CC1C2c3c(-c4ccc(Cl)c(Cl)c4)cccc3C(CC2(C)C)N1Cc1ccc2c(c1)OCO2` (racemic), for which the IC50 result on NADPH oxidase 4 is recorded as “Not Active”. For the same compound, the “inhibition (INH)” value in data set [1] is recorded as “Not Active”.

With `C=C(C)CC1C2c3c(-c4ccc(Cl)c(Cl)c4)cccc3C(CC2(C)C)N1CCCCC` (racemic), the “inhibition (INH)” value in data set [1] is “Not Active”.

For the compound `C=C(C)CC1C2c3c(Br)cccc3C(CC2(C)C)N1S(C)(=O)=O` (racemic), in data set [1], the “inhibition (INH)” value is “Not Active”. For the same compound, the IC50 result at NADPH oxidase 1 is listed as “Not Active”.

On to `C=C(C)CC1C2c3c(Br)cccc3C(CC2(C)C)N1S(=O)(=O)c1ccc(F)cc1` (racemic), for which the IC50 entry on NADPH oxidase 4 is listed as “Not Active”. Also, the “inhibition (INH)” value in data set [1] is “Not Active”.
